This note sets out measurements from ChEMBL document CHEMBL1201862, “PubChem BioAssay data set” (2004).

The structures appear in SMILES notation.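 The compound was tested at five concentrations on cells cultured in 96-well plates, with a 48-hour exposure period. Here, GI50 denotes the concentration required for 50% inhibition of growth.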 Activity calls are given as the source filed them. Rule as the data show it: active = GI50 up to about 1.1 µM and inactive = higher.

Among the test systems are MCF7; RXF 393; SF-295; COLO 205; HL-60; A549; SK-MEL-2; CAKI-1; OVCAR-5; K562; RPMI-8226; HCC 2998; NCI-H23; SR; MDA-MB-231; SF-268; OVCAR-4; ACHN; UACC-62; SK-MEL-28.
Common to all, as to assay: NCI-60 cell line screen, 48 h

For the molecule `Cc1cc(O)c(-c2cc(O)c(C)cc2O)cc1O`, the GI50 in the test with MCF7 is 10 µM (inactive); in the test on RXF 393, 2.38 µM (inactive); in the test with SF-295, 16.7 µM (inactive); in the test with COLO 205 it was 7.16 µM (inactive); in the test with HL-60 it was 1.71 µM (inactive); with A549, 17.8 µM (inactive). For the same molecule, the GI50 in the test with SK-MEL-2 is 17.2 µM (inactive); in the test on CAKI-1, 6.07 µM (inactive); with OVCAR-5, 16.6 µM (inactive); in the test with K562 it was 1.86 µM (inactive); in the test with RPMI-8226 it was 1.66 µM (inactive); with HCC 2998, 14.1 µM (inactive). Besides, the GI50 in the test on NCI-H23 is 10.5 µM (inactive); with SR, 0.977 µM (active); in the test on MDA-MB-231, 14.2 µM (inactive); in the test on SF-268, 19.1 µM (inactive); in the test on OVCAR-4, 5.5 µM (inactive); in the test on ACHN, 3.94 µM (inactive). Besides, the GI50 is 15.6 µM (inactive) in the test on UACC-62 and 9.23 µM (inactive) in the test with SK-MEL-28.
On to `CCN(CC)CCn1nc(N)c2nc3cc(Cl)ccc3nc21`, for which the GI50 was 36.1 µM (inactive) in the test on MCF7; 88.9 µM (inactive) in the test with RXF 393; 54.2 µM (inactive) in the test with SF-295; 35.7 µM (inactive) in the test on COLO 205; 61.4 µM (inactive) with HL-60; 49.8 µM (inactive) with A549. The GI50 in the test with SK-MEL-2 was 64.3 µM (inactive); in the test with CAKI-1, 51.4 µM (inactive); in the test on OVCAR-5, 89.1 µM (inactive); with K562, 40.7 µM (inactive); in the test with RPMI-8226, 89.9 µM (inactive); in the test on HCC 2998 it was > 100 µM (inactive). Further, the GI50 in the test on NCI-H23 is 91.6 µM (inactive); with SR, 82.8 µM (inactive); in the test on MDA-MB-231 it was > 100 µM (inactive); in the test with SF-268 it was 75.5 µM (inactive); with OVCAR-4 it was > 100 µM (inactive); in the test on ACHN, 37.5 µM (inactive). Moreover, the figures for the GI50 in the test on UACC-62 and in the test with SK-MEL-28 were 45.9 µM (inactive) and 76.2 µM (inactive), respectively.
Regarding `NCCCc1ccc2oc3ccccc3c2c1`, the GI50 was 18.7 µM (inactive) with MCF7; 17.9 µM (inactive) in the test on RXF 393; 18.5 µM (inactive) with SF-295; 17.5 µM (inactive) in the test on COLO 205; 11.4 µM (inactive) in the test on HL-60; 17.1 µM (inactive) in the test with A549. Besides, the GI50 with SK-MEL-2 is 20.4 µM (inactive); with CAKI-1, 16.2 µM (inactive); in the test with OVCAR-5, 12.7 µM (inactive); with K562, 24.2 µM (inactive); with RPMI-8226 it was 26.4 µM (inactive); in the test with HCC 2998, 10.6 µM (inactive). Besides, the GI50 in the test with NCI-H23 is 20.6 µM (inactive); with SR, 16.2 µM (inactive); in the test on MDA-MB-231, 17.7 µM (inactive); with SF-268 it was 19.5 µM (inactive); in the test with OVCAR-4 it was 19.9 µM (inactive); in the test on ACHN, 17.5 µM (inactive). Besides, the figures for the GI50 in the test with UACC-62 and in the test on SK-MEL-28 were 17.7 µM (inactive) and 17.8 µM (inactive), respectively.
Regarding `COc1cc(C2SC(=N)Nc3c2c(C)nn3C(=O)c2ccc(Cl)cc2)ccc1O` (stereo not given), the GI50 with MCF7, in the test on RXF 393, in the test with SF-295, with COLO 205, with HL-60 and in the test with A549 was > 10 µM (inactive) each time. Also, the GI50 with SK-MEL-2, in the test on CAKI-1, in the test on OVCAR-5, with K562, in the test with RPMI-8226 and in the test with HCC 2998 was > 10 µM (inactive) throughout. Besides, the GI50 in the test on NCI-H23, with SR, with MDA-MB-231, in the test on SF-268, in the test on OVCAR-4 and in the test with ACHN was > 10 µM (inactive) throughout. Further, the GI50 in the test with UACC-62 and with SK-MEL-28 was > 10 µM (inactive) throughout.
For `CC(C)(C)c1cc(OCc2nnc3sc(S)nn23)c(Cl)cc1OCc1nnc2sc(S)nn12`, the GI50 with MCF7 was 15.6 µM (inactive); in the test with RXF 393 it was 22.4 µM (inactive); in the test with SF-295, 27.9 µM (inactive); in the test on COLO 205, 39.1 µM (inactive); in the test with HL-60, 22.5 µM (inactive); in the test on A549, 35.1 µM (inactive). In addition, the GI50 is 27.4 µM (inactive) in the test on SK-MEL-2; 33.6 µM (inactive) in the test with CAKI-1; 35.2 µM (inactive) in the test with OVCAR-5; 32.6 µM (inactive) in the test with K562; 30.7 µM (inactive) in the test on RPMI-8226; 31.8 µM (inactive) with HCC 2998. Further, the GI50 was 28.7 µM (inactive) with NCI-H23; 18.3 µM (inactive) in the test with SR; 36.6 µM (inactive) in the test with MDA-MB-231; 24.9 µM (inactive) with SF-268; 32.5 µM (inactive) in the test with OVCAR-4; 26.1 µM (inactive) with ACHN. Further, the GI50 with UACC-62 is 17.4 µM (inactive); in the test with SK-MEL-28, 22.3 µM (inactive).
With `CCOC(=O)NC(Nc1ccc(S(=O)(=O)Nc2nc(C)cc(C)n2)cc1)(C(=O)OCC)C(F)(F)F` (stereo not given), the GI50 in the test on MCF7, with RXF 393, in the test with SF-295, in the test on COLO 205, in the test with HL-60 and in the test with A549 was > 100 µM (inactive) each time. The GI50 with SK-MEL-2, with CAKI-1, with OVCAR-5, in the test with K562, in the test on RPMI-8226 and in the test on HCC 2998 was > 100 µM (inactive) in each case. Further, the GI50 with NCI-H23 was > 100 µM (inactive); with SR, 5.33 µM (inactive); in the test on MDA-MB-231 it was > 100 µM (inactive); in the test on SF-268, > 100 µM (inactive); with OVCAR-4, > 100 µM (inactive); with ACHN, > 100 µM (inactive). In addition, the GI50 in the test with UACC-62 and in the test with SK-MEL-28 was > 100 µM (inactive) each time.
Turning to `C[N+](C)(C)CCCCCc1c2nc(c(CCCCC[N+](C)(C)C)c3ccc([nH]3)c(CCCCC[N+](C)(C)C)c3nc(c(CCCCC[N+](C)(C)C)c4ccc1[nH]4)C=C3)C=C2`, the GI50 in the test with MCF7 is > 100 µM (inactive); in the test on RXF 393, 2.77 µM (inactive); in the test with SF-295 it was > 100 µM (inactive); in the test on COLO 205, > 100 µM (inactive); in the test on HL-60, > 100 µM (inactive); in the test on A549, 87.9 µM (inactive). The GI50 in the test with SK-MEL-2, with CAKI-1, in the test on OVCAR-5, in the test with K562, in the test with RPMI-8226 and in the test on HCC 2998 was > 100 µM (inactive) throughout. For the same molecule, the GI50 in the test on NCI-H23, in the test on SR, with MDA-MB-231, with SF-268, in the test on OVCAR-4 and in the test with ACHN was > 100 µM (inactive) throughout. Also, the GI50 in the test on UACC-62 and in the test with SK-MEL-28 was > 100 µM (inactive) in each case.
